According to patent publication US8198273B2, “Compounds and methods for kinase modulation, and indications therefor” (Plexxikon Inc., priority 2009, dated 2012):

How the values were obtained:
CYP2D6 = CYP2D6 (Homo sapiens, UniProt P10635); experiment: CYP2D6 inhibition (fluorescent substrate); assay type: in vitro ADME; conditions: CYP2D6, AMMC substrate; read-out: Cyp IC50 2D6
Procedure, shortened: (§1)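 IC50 values come from plotting product fluorescence against compound concentration; inhibition lowers formation of the fluorescent metabolite. Ten-point twofold dilutions in co-factor mix were held 10 minutes at 37 °C before the enzyme reaction, also run at 37 °C.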

CYP3A4(BFC) = CYP3A4(BFC) (Homo sapiens, UniProt P08684); experiment: CYP3A4(BFC) inhibition (fluorescent substrate); assay type: in vitro ADME; conditions: read-out: Cyp IC50 3A4(BFC)
Sequence of CYP3A4(BFC) (P08684 whole entry): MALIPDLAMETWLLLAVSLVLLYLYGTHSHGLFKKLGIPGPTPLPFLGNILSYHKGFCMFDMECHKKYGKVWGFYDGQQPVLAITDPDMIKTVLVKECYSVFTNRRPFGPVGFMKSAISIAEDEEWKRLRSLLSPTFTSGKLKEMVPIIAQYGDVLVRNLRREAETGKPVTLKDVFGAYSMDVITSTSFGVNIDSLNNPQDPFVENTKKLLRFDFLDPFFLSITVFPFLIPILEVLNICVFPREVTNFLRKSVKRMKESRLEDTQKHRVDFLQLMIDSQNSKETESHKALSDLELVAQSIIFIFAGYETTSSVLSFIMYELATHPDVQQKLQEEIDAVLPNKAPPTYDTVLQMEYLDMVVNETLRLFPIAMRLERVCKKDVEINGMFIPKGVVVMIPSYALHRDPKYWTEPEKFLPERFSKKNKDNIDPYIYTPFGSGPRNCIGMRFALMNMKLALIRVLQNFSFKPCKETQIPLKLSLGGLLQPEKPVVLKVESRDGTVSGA
Procedure, shortened: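 Inhibition was followed as loss of fluorescent metabolite from a known substrate, with compound in co-factor mix as a 10-point 1:1 serial dilution (100 mM DMSO stock).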

[1] = Relative solubility by turbidity in aqueous buffers of varying pH; assay type: physicochemical
Procedure, shortened: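 Turbidity endpoint: concentration where optical density at 490, 535 and 650 nm exceeds 0.01, three-wavelength average used. Buffers at pH 1.5, 4.5, 6.8 and 7.4; DMSO serial dilutions of 25 mM stock spiked 1 μL into 99 μL buffer. Low <31.3, moderate 31.3–250, high >250 μM.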

CYP2C19 = CYP2C19 (Homo sapiens, UniProt P33261); experiment: CYP2C19 inhibition (fluorescent substrate); assay type: in vitro ADME; conditions: CYP2C19, CEC substrate; read-out: Cyp IC50 2C19
Sequence of CYP2C19 (P33261 whole entry): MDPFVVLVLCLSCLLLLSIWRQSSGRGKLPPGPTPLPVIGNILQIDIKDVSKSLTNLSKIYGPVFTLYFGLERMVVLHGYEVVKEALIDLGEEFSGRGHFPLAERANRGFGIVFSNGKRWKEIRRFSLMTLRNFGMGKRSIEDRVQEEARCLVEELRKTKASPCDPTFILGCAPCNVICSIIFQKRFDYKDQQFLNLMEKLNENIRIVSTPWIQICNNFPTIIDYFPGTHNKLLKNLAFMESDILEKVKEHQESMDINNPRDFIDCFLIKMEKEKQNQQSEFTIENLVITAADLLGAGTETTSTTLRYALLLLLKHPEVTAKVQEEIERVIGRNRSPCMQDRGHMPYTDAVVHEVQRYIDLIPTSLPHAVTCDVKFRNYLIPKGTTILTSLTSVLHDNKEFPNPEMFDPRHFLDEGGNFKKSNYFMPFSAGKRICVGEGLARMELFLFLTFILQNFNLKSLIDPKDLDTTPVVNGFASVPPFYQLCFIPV
Procedure, shortened: as §1

B-Raf V600E = B-Raf V600E (Homo sapiens, UniProt P15056, V600E); experiment: B-Raf V600E biochemical kinase inhibition (AlphaScreen, biotin-MEK1 substrate); conditions: 100 μM ATP
Sequence of B-Raf V600E (P15056 whole entry V600E): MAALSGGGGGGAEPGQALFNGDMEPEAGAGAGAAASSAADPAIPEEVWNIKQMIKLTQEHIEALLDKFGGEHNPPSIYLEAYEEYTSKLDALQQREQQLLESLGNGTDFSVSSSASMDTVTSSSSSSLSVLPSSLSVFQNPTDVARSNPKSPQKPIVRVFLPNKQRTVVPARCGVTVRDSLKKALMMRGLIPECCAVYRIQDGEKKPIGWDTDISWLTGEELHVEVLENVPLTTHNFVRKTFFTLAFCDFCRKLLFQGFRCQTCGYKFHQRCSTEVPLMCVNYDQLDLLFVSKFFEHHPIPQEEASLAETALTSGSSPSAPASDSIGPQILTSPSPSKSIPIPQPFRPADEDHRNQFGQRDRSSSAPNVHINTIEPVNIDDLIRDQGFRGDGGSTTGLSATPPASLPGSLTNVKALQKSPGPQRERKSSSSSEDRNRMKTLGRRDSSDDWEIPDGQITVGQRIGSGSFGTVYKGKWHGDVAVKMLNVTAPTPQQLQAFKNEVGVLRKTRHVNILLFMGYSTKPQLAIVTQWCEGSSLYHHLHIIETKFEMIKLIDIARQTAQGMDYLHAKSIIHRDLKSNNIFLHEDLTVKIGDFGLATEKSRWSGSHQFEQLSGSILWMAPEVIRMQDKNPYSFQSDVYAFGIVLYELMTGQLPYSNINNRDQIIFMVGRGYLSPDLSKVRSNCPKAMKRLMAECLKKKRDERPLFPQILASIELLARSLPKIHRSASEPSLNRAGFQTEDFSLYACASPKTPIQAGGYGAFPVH
Procedure, shortened: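 IC50 derived from AlphaScreen signal plotted against compound concentration. Final ATP 100 μM; 3 h incubation at room temperature. Eight-point 3-fold dilution series prepared from a 0.1 mM DMSO stock.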

Sequence of CYP2D6 (P10635 whole entry): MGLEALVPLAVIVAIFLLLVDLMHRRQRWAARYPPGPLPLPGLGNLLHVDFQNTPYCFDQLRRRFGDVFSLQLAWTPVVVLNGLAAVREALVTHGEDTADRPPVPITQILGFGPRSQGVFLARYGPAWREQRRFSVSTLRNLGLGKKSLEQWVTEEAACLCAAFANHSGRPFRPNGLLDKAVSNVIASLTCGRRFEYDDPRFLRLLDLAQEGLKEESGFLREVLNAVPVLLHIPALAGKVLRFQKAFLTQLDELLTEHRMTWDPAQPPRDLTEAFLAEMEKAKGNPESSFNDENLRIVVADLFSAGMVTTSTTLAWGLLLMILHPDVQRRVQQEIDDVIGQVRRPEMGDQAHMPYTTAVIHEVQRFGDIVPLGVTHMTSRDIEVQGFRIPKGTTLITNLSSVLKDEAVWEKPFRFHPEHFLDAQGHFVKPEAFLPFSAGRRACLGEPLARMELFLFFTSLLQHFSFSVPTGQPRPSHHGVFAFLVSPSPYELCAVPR

Structure (SMILES): CCCS(=O)(=O)Nc1ccc(F)c(C(=O)c2c[nH]c3ncc(-c4ccc(N(C)C)nc4)cc23)c1F [P-2229, Propane-1-sulfonic acid {3-[5-(6-dimethylamino-pyridin-3-yl)-1H-pyrrolo[2,3-b]pyridine-3-carbonyl]-2,4-difluoro-phenyl}-amide]
- IC50 (CYP2D6): > 10 µM
- IC50 (CYP3A4(BFC)): > 10 µM
- turbidity threshold (L, M, H) 7.4 ([1]; HEPES pH 7.4): M (moderate solubility if the threshold concentration is 31.3 μM to 250 μM)
- turbidity threshold (L, M, H) 4.5 ([1]; SIF pH 4.5): L (low solubility if the threshold concentration is <31.3 04)
- turbidity threshold (L, M, H) 6.8 ([1]; SIF pH 6.8): M (moderate solubility if the threshold concentration is 31.3 μM to 250 μM)
- turbidity threshold (L, M, H) 1.4 ([1]; buffer pH 1.4 (SGF)): M (moderate solubility if the threshold concentration is 31.3 μM to 250 μM)
- IC50 (CYP2C19): > 10 µM
- IC50 (B-Raf V600E): < 0.1 µM
